Experimental data as given in patent US6193985A, “Tocopherol compositions for delivery of biologically active agents” (priority 1994, dated 2001).
Like-named read-outs stand apart in the source and are kept apart here.

What was measured:
[1] = Description: For the following, non-limiting, sparingly soluble drugs in water, the solubility in α-tocopherol and sesame oil are listed in Table 1:
Sesame oil was chosen as the reference, because it is a very commonly used and well tolerated vegetable oil. The solubilities in sesame oil and α-tocopherol were investigated by visual inspection of the saturation point.

[2] = cited from earlier work
[3] = cited from earlier work; remark: listed apart in the source
[4] = solubility in sesame oil (reference)

CCCC1O[C@@H]2C[C@H]3[C@@H]4CCC5=CC(=O)C=C[C@]5(C)[C@H]4[C@@H](O)C[C@]3(C)[C@]2(C(=O)CO)O1 (stereo partly shown) [Budesonide, budesonide]
g drug in 100 g of sesame oil [1, 4]: < 0.1 g drug in 100 g

C(=C\c1ccccc1)/CN1CCN(C(c2ccccc2)c2ccccc2)CC1 [Cinnarizine, cinnarizine]
oral bioavailability ([2]; if dissolved in a vehicle before administration): higher oral bioavailability
solubility in water (in words) [3]: very low water solubility
g drug in 100 g of sesame oil [1]: 2-4 g drug in 100 g
g drug in 100 g of α-tocopherol [1]: 11-18 g drug in 100 g

CCN(CC)C(=S)SSC(=S)N(CC)CC [Disulfiram, disulfiram]
g drug in 100 g of α-tocopherol ([1]; solubility in α-tocopherol): 5 g drug in 100 g

CCN(CC)CCNC(=O)c1cc(Cl)c(N)cc1OC [Metoclopramide]
g drug in 100 g of sesame oil [1]: < 2 g drug in 100 g
g drug in 100 g of α-tocopherol [1]: 2-4 g drug in 100 g

Cc1ncc([N+](=O)[O-])n1CCOC(=O)c1ccccc1 [Metronidazole benzoate]
g drug in 100 g of sesame oil [1, 4]: < 2 g drug in 100 g

Clc1ccc(COC(Cn2ccnc2)c2ccc(Cl)cc2Cl)c(Cl)c1 (stereo not shown) [Miconazole, miconazole]
g drug in 100 g of α-tocopherol ([1]; solubility in α-tocopherol): 60 g drug in 100 g

Cc1ncc2n1-c1ccc(Cl)cc1C(c1ccccc1F)=NC2 [Midazolam, midazolam]
first-pass effect ([2]; after oral administration): very high first-pass effect
g drug in 100 g of α-tocopherol ([1]; solubility in α-tocopherol): > 13 g drug in 100 g

CC(=O)[C@H]1CC[C@H]2[C@@H]3CCC4=CC(=O)CC[C@]4(C)[C@H]3CC[C@]12C [Progesterone]
g drug in 100 g of α-tocopherol ([1]; solubility in α-tocopherol): > 30 g drug in 100 g
